One experiment concerns NCI-H716 cells. As to the kind of experiment: GLP-1 secretion from NCI-H716 cell line. The format is cell-based, human. The conditions noted are these: bile acid 25 μM, 2 hrs; secretion amount in Base was 100%. As for the experimental part:
NCI-H716 cells secrete Glucagon-like peptide-1 (GLP-1). GLP-1 is a peptide useful for controlling blood glucose level because it acts on the pancreas to cause secretion of insulin and the like. In the same manner as in Experimental Example 9, NCI-H716 (ATCC) was seeded in a 96 well plate and, after incubation for 2 days, used for the following secretion test. As a buffer for secretion test, modified Krebs-Ringer bicarbonate buffer (KRBH, 116 mM NaCl, 4.7 mM KCl, 1.2 mM KH2PO4, 1.2 mM MgSO4, 2.5 mM CaCl2, 25 mM NaHCO3, 24 mM HEPES, pH 7.3) supplemented with glucose 5.5 mM and BSA 0.1% was used. The cells were washed once with the buffer for secretion test, preincubated at 37° C. under 5% CO2, bile acid diluted with the buffer for secretion test was added and the cells were cultured at 37° C. under 5% CO2 for 2 hrs. The cell culture supernatant was collected, cryopreserved and the GLP-1 content in the supernatant was measured using a GLP-1 measurement EIA kit (Linco) The results are shown in Table 9. In the Table, Base means non-addition of a test compound.

In a further experiment the test system is THP-TGR5 cells. The experiment in a line: suppression of LPS induced TNF α secretion in THP-TGR5 cells. The format is cell-based, human. To be noted: bile acid 50 μM, non-addition: 11 with LPS, 2.7 without LPS. As for the experimental part: TGR5 high expression cells were established by introducing TGR5 gene into human macrophage cells line THP-1. According to a conventional method, pcDNA-TGR5 incorporating cDNA of human TGR5 in pcDNA3.1 (Invitrogen) was prepared. Then, THP-1 was cultured in a medium (RPMI1640 10% FBS), and pcDNA-TGR5 was introduced thereinto using lipofectamine (Gibco BRL) according to conventional methods. Thereafter, G418 (Gibco BRL) was added to the medium to select resistant strains, and cells line, THP-TGR5 that expresses TGR5 stably and highly was established.
THP-TGR5 thus obtained was diluted to a concentration of 1×10^5/well and cultured overnight in a 96 well plate in the presence of 10^−8M phorbol ester (Wako Pure Chemical Industries, Ltd.). THP-TGR5 after culture was cultured for 1 hr in a medium containing a test compound or a control medium (0.1 ml) free of a test compound, 0.1 ml of a medium containing the same concentration of the test compound or a control medium free of the test compound, each of which containing LPS for induction of TNF α secretion was added (concentration at the time of addition 50 ng/ml) and the mixture was incubated at 37° C. under 5% CO2 for 14 hrs. The culture supernatant was collected and the TNF α content was measured with the growth suppressing effect on the TNF sensitive cell line L929 (RIKEN Institute) as an index.
L929 cells were seeded in a 96 well plate at 1.2×10^4/well and incubated overnight at 37° C. under 5% CO2. The obtained culture product was cultured overnight in a medium (phenol red free Dulbecco's Modified Eagle Medium (Invitrogen) supplemented with 10% fetal bovine serum (Invitrogen), 100 U/ml penicillin and 100 μg/ml streptomycin), which contained the aforementioned THP-TGR5-containing culture supernatant and 2 μg/ml Actinomycin D (Wako Pure Chemical Industries, Ltd.). The TNF α content was determined by measuring the growth of the L929 cells in the obtained culture product using a Cell Counting Kit-8 (Wako Pure Chemical Industries, Ltd.). As the standard sample, human recombinant TNF α (Genzyme) was used.

The subject of experiment [1] is guinea pig peripheral blood mononuclear cells. The experiment in a line: TNF secretion in LPS-stimulated guinea pig peripheral blood mononuclear cells. The format is cell-based. To be noted: 16 hrs, bile acid 50 μM; non-addition: 160 with LPS, 13 without. As for the experimental part:
The peripheral blood was taken from guinea pig, and mononuclear cell fraction was obtained by a density separation method using Ficoll-Paque PLUS (Amersham Pharmacia). The fraction at a concentration of 1×10^5/well was cultured for 16 hrs in the presence of […] LPS in a 96-well plate upon addition of bile acid or a test compound. The culture supernatant was collected and TNF and IL-6 in the supernatant were quantitated.
The TNF secretion amount in the culture supernatant was measured in the same manner as in Experimental Example 7.

For the compound `C[C@H](CCC(=O)NCCS(=O)(=O)O)[C@H]1CC[C@H]2[C@@H]3CC[C@@H]4C[C@H](O)CC[C@]4(C)[C@H]3CC[C@]12C` [TLCA, taurolithocholic acid, reference compound], the “GLP-1 secretion increase (%)” value with NCI-H716 cells is reported as 124%. In addition, the “TNF α” value with THP-TGR5 cells stood at 0.22 ng/mL; in experiment [1], 60 pg/mL.

For the origin of these results see patent US7625887B2, “Receptor agonists” (Takeda Pharmaceutical Company Limited, priority 2003, dated 2009).
